The values below come from ChEMBL document CHEMBL2331291, “Targeting CCR2 Receptor To Treat Inflammation Diseases and Disorders” (ACS Med Chem Lett, 2013).

The term pKi denotes the negative decadic logarithm of the Ki, by convention in mol/L. Higher therefore signals a low Ki.

Experiment [1] addresses C-C chemokine receptor type 2 (Homo sapiens, UniProt P41597). Put plainly: Displacement of [125I]MCP1 from CCR2 in human THP1 cell membranes after 8 hrs by scintillation counting analysis. More on the design: species or system THP-1. (Displacement assays read how much labelled ligand stays bound in the presence of the test substance.)
For experiment [2], the target named is C-C chemokine receptor type 5 (Homo sapiens, UniProt P51681). Put plainly: Displacement of [125I]RANTES from human CCR5 expressed in CHO cell membranes coexpressing Gal6 after 6 hrs by scintillation counting analysis.
C-C chemokine receptor type 5, sequence (P51681 whole entry): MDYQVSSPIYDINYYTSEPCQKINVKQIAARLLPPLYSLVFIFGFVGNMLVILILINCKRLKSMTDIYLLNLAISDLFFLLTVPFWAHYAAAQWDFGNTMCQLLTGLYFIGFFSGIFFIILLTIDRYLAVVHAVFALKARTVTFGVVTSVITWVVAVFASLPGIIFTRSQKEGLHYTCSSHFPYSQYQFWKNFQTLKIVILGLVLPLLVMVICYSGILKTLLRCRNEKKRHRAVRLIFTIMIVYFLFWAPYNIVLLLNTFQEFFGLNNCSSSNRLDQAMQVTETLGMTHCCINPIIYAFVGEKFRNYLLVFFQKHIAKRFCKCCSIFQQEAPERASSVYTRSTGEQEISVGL

pKi: −log10 of the molar value.

C-C chemokine receptor type 2, sequence (P41597 whole entry): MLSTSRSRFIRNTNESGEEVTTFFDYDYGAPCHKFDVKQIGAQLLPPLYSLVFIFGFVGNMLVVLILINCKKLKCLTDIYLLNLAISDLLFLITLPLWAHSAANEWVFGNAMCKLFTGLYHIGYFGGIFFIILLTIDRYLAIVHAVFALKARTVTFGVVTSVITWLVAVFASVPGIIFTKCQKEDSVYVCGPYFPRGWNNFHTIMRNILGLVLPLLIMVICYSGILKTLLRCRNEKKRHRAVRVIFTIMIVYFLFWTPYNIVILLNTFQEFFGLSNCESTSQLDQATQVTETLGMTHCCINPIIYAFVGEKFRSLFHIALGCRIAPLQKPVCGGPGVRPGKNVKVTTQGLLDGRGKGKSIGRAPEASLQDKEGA

For `CO[C@@H]1COCC[C@@H]1NC1CCN(C(=O)c2nc(C(F)(F)F)nc(N3CCc4cc(C(F)(F)F)ccc4C3)c2C)CC1`, the pKi in experiment [1] was 8.70; in experiment [2], 6.82.
